Data reported in patent publication US10174021B2, “Substituted pyrazolo[1,5-A]pyridines and their use” (BAYER PHARMA AKTIENGESELLSCHAFT, priority 2014, dated 2019).

Test system: recombinant guanylate cyclase reporter cell line
Experiment: Effect on a recombinant guanylate cyclase reporter cell line
Type: cell-based
Conditions: in some cases mean values from individual determinations, read-out: MEC (minimum effective concentration)
Description: B-2. Effect on a Recombinant Guanylate Cyclase Reporter Cell Line
The cellular activity of the compounds according to the invention is determined using a recombinant guanylate cyclase reporter cell line, as described in F. Wunder et al., Anal. Biochem. 339, 104-112 (2005).
Representative MEC values (MEC=minimum effective concentration) for the compounds of the invention are shown in the table below (in some cases as mean values from individual determinations): […]

**Q.** `CCN(C)Cc1cccc(-c2c(C)nn3c(OCc4c(F)cccc4F)cc(C)cc23)c1` [Example 10, N-(3-{7-[(2,6-Difluorobenzyl)oxy]-2,5-dimethylpyrazolo[1,5-a]pyridin-3-yl}benzyl)-N-methylethanamine] was tested. Which minimal effective concentration did it give?
**A.** 0.065 µM
